Experimental data published in patent US20090215742A1, “AMIDE […]” (PFIZER, INC., priority 2005, published 2009).

Target: T1, HSP-90 (Homo sapiens, UniProt P07900)
T1 construct: fused on or other part: 6-His tag at the C-terminus
Assay: HSP-90 SPA (scintillation proximity assay) competition binding assay, displacement of tritiated propyl-Geldanamycin
Details: for inhibition at 1 µM: read-out: % inhibition @ 1 μM; for inhibition at 10 µM: read-out: % inhibition @ 10 μM
Method: Compounds of the present invention were evaluated for potency against HSP-90 using a SPA (scintillation proximity assay) competition binding assay. Briefly, either full length or N-terminal HSP-90 that contains a 6-His tag on its C-terminus binds to copper on Yttrium-silicate scintillant beads via the His-tag. Tritiated propyl-Geldanamycin (pGA), whose structure is shown below, is an analog of a natural inhibitor of HSP-90 called Geldanamycin.
Tritiated pGA, which contains a tritiated propyl-amine group added at the #17 position, binds HSP-90 and brings the isotope into proximity with the beads. […] The beta signal emitted from the isotope excites the scintillant, which creates a measurable signal. As competitive compounds are added to the assay mixture, they compete with bound tritiated pGA at the ATP-binding site on the N-terminal of HSP-90. When a compound displaces the labeled pGA, the signal is reduced (the beta-particles are no longer in proximity with the bead). This reduction in signal is used to quantify the extent to which the inhibitor/compound is competitive with pGA.
Typical reaction solutions contained 30 nM HSP-90 and 200 nM ^3H-pGA in binding buffer (100 mM Hepes, pH 7.5 and 150 mM KCl). […] Inhibitors were added to the HSP-90/^3H-pGA solutions at eleven different concentrations for Ki determinations. […] To determine percent inhibition, the compound was tested at 1 and 10 μM. The final DMSO in the samples was 4%. Copper-Ysi beads (Amersham, #RPNQ0096) that have been diluted in binding buffer were added to each well to give a final concentration of 100 μg/well. The plates were sealed, covered with a foil-covered lid and shaken for 30 minutes at room temperature. The beads were allowed to settle for 30 minutes after which the plates were counted using a Packard TopCount NXT instrument. This procedure has also been adapted for medium throughput using a Beckman Biomek FX. Samples were run in duplicate and on two separate days to assure an accurate value of Ki.
For Ki determinations, the corrected cpm's (actual cpm's minus background) were plotted vs. inhibitor concentration using GraphPad Prism software. […] The IC50 was then used to calculate the Ki by using the Cheng-Prusoff equation: […]
This is normally true when the observed IC50 is […] the HSP-90 concentration. For a tight binding inhibitor, the following equation can be applied: […]
EL and ELo are the radioligand-HSP-90 complexes in the presence and absence of inhibitor, respectively. EL/ELo represents the fractional signal in the presence of inhibitor. Io, Eo, and Lo are the inhibitor, HSP-90, and radioligand concentrations, respectively.

Compound	inhibition at 1 µM	inhibition at 10 µM
O=C(c1ccc(O)cc1O)N1CCOCC2(CC(c3ccc(F)cc3)=NO2)C1 (centres unmarked) [Example 120, 4-{[3-(4-fluorophenyl)-1,7-dioxa-2,10-diazaspiro[4.6]undec-2-en-10-yl]carbonyl}benzene-1,3-diol]	76.2%	89.4%
O=C(c1cc(-c2cc[nH]n2)ccc1O)N1Cc2ccccc2C1 [Example 33, 2-(1,3-dihydro-2H-isoindol-2-ylcarbonyl)-4-(1H-pyrazol-3-yl)phenol]	2%	20.9%
CCc1nc(COCC2CCN(C(=O)c3ccc(O)cc3O)C2)no1 (centres unmarked) [Example 58, 4-[(3-{[(5-ethyl-1,2,4-oxadiazol-3-yl)methoxy]methyl}pyrrolidin-1-yl)carbonyl]benzene 1,3-diol]	29.3%	72.5%
COc1ccccc1-c1nnc(CN(C)C(=O)c2ccc(O)cc2O)o1 [Example 118, 2,4-Dihydroxy-N-{[5-(2-methoxyphenyl)-1,3,4-oxadiazol-2-yl]methyl}-N-methylbenzamide]	15.4%	57%
Cc1ccc2c(c1)C=CC1(CCN(C(=O)c3ccc(O)cc3O)CC1)O2 [Example 82, 4-[(6-methyl-1′H-spiro[chromene-2,4′-piperidin]-1′-yl)carbonyl]benzene-1,3-diol]	62.8%	85.3%
O=C(c1cc2ccccc2cc1O)N1Cc2ccccc2C1 [Example 24, 3-(1,3-dihydro-2H-isoindol-2-ylcarbonyl)-2-naphthol]	5.4%	34.9%
O=C(c1ccc(O)cc1O)N1CCOCC2(CC(c3c(F)cccc3F)=NO2)C1 (centres unmarked) [Example 131, 4-{[3-(2,6-difluorophenyl)-1,7-dioxa-2,10-diazaspiro[4.6]undec-2-en-10-yl]carbonyl}benzene-1,3-diol]	24.7%	69.6%
O=C(c1ccc(O)cc1O)N1CCC(Cc2ccc(Cl)cc2)CC1 [Example 43, 4-{[4-(4-chlorobenzyl)piperidin-1-yl]carbonyl}benzene-1,3-diol]	35.9%	73.6%
CC(C)CN(C)C(=O)c1ccc(O)cc1O [Example 39, 2,4-dihydroxy-N-isobutyl-N-methylbenzamide]	11.3%	52.3%
O=C(c1ccc(O)cc1O)N1CCCN(c2nc3cc(Cl)ccc3o2)CC1 [Example 88, 4-{[4-(5-chloro-1,3-benzoxazol-2-yl)-1,4-diazepan-1-yl]carbonyl}benzene-1,3-diol]	4.3%	42.9%
COc1ccccc1OC1CCN(C(=O)c2ccc(O)cc2O)CC1 [Example 72, 4-{[4-(2-methoxyphenoxy)piperidin-1-yl]carbonyl}benzene-1,3-diol]	13.2%	62.4%
O=C(c1ccc(O)cc1O)N1CCCCC1c1nccs1 (centres unmarked) [Example 62, 4-{[2-(1,3-thiazol-2-yl)piperidin-1-yl]carbonyl}benzene 1,3-diol]	12%	64.4%
O=C(c1ccc(O)cc1O)N1CCc2nnc(-c3cccc4ccccc34)n2CC1 [Example 134, (2,4-Dihydroxy-phenyl)-(3-naphthalen-1-yl-4,5,7,8-tetrahydro-1,2,3a,6-tetraaza-azulen-6-yl)-methanone]	3.7%	37.6%
COc1ccc2cc(O)c(C(=O)N3Cc4ccccc4C3)cc2c1 [Example 25, 3-(1,3-dihydro-2H-isoindol-2-ylcarbonyl)-6-methoxy-2-naphthol]	9.9%	13.7%
CCOC(=O)C1CCCN(C(=O)c2ccc(O)cc2O)C1 (centres unmarked) [Example 52, ethyl 1-(2,4-dihydroxybenzoyl)piperidine-3-carboxylate]	39.1%	80.2%
O=C(c1cccc2cccnc12)N1Cc2ccccc2C1 [Example 187, 8-(1,3-dihydro-2H-isoindol-2-ylcarbonyl) quinoline]	0%	–
O=C(c1ccc(O)cc1O)N1CCCCC1 [Example 63, 4-(piperidin-1-ylcarbonyl)benzene-1,3-diol]	32.2%	72%
Cc1ccc(C(=O)N2Cc3ccccc3C2)c(O)c1 [Example 27, 2-(1,3-dihydro-2H-isoindol-2-ylcarbonyl)-5-methylphenol]	0.2%	26.2%
O=C(c1ccc(O)cc1O)N1CCC(Oc2cccc(Cl)c2)CC1 [Example 69, 4-{[4-(3-chlorophenoxy)piperidin-1-yl]carbonyl}benzene-1,3-diol]	33.9%	76.6%
O=C(c1ccc(O)cc1O)N1CCCCC1c1cccc(F)c1 (centres unmarked) [Example 57, 4-{[2-(3-fluorophenyl)piperidin-1-yl]carbonyl}benzene-1,3-diol]	73.7%	88.2%
O=C(c1ccc(Cl)cc1O)N1Cc2ccccc2C1 [Example 26, 5-chloro-2-(1,3-dihydro-2H-isoindol-2-ylcarbonyl)phenol]	1%	39%
CN(CCc1ccccc1)C(=O)c1ccc(O)cc1O [Example 108, 2,4-dihydroxy-N-methyl-N-(2-phenylethyl)benzamide]	40.5%	83.1%
O=C(c1ccc(O)cc1O)N1CCOCC(Cc2ccc(Cl)c(Cl)c2)C1 (centres unmarked) [Example 99, 4-{[6-(3,4-dichlorobenzyl)-1,4-oxazepan-4-yl]carbonyl}benzene-1,3-diol]	52.2%	80%
CN(Cc1ccc(Oc2ccccc2)cc1)C(=O)c1ccc(O)cc1O [Example 107, 2,4-dihydroxy-N-methyl-N-(4-phenoxybenzyl)benzamide]	51.1%	83.4%
O=C(c1ccc(O)cc1O)N1CCC(Oc2ccccc2)CC1 [Example 71, 4-[(4-phenoxypiperidin-1-yl)carbonyl]benzene-1,3-diol]	37.3%	79.3%
CN(Cc1nnc(-c2ccc(F)cc2)o1)C(=O)c1ccc(O)cc1O [Example 119, N-{[5-(4-fluorophenyl)-1,3,4-oxadiazol-2-yl]methyl}-2,4-dihydroxy-N-benzamide]	50.9%	82.8%
CN(Cc1nnc(-c2cccc(C#N)c2)o1)C(=O)c1ccc(O)cc1O [Example 121, N-{[5-(3-cyanophenyl)-1,3,4-oxadiazol-2-yl]methyl}-2,4-dihydroxy-N-methylbenzamide]	10.6%	64.6%
O=C(c1ccc(O)cc1O)N1CCC(COc2cccc(Cl)c2)C1 (centres unmarked) [Example 87, 4-({3-[(3-chlorophenoxy)methyl]pyrrolidin-1-yl}carbonyl)benzene-1,3-diol]	36.7%	65%
O=C(c1ccc(O)cc1O)N1CCc2ccccc2C1c1ccccc1 (centres unmarked) [Example 103, (2,4-Dihydroxy-phenyl)-(1-phenyl-3,4-dihydro-1H-isoquinolin-2-yl)-methanone]	64.5%	87.8%
O=C(c1ccc(O)cc1O)N1CCC(c2ccc(F)cc2)CC1 [Example 70, 4-{[4-(4-fluorophenyl)piperidin-1-yl]carbonyl}benzene-1,3-diol]	40.2%	79.1%
